The results in this text go back to EP2735303A1, “Hair growth compositions and methods” (Pilosciences, priority 2012, dated 2014).

The test system of data set [1] is human skin explants. The data set can be described thus: Morphology of the hair follicle in human skin explants ex vivo after topical application (histology). It is filed as cell-based. Further details: key to Upper part (quotation of morphological alterations) / Sebaceous gland (quotation of morphological alterations): -: no alteration; +: weak; ++: moderate; +++: significant; ++++: very significant; +++++: strong. The procedure:
Anti-HGP antibodies were produced (see example A) or obtained from commercially available sources, and investigated for their ability to inhibit body hair growth ex vivo using human skin explants.
The activity of the antibodies was assessed based on their effect on the morphology and growth of the body hair.
The activity of keratinase A (Sigma) was investigated in parallel. Eflornithin (Calbiochem) was used as a reference.
40 explants of a diameter of about 11 mm (± 1 mm) were obtained by abdominoplasty from 2 men. The explants were placed in survival in the BEM (BIO-EC's Explants Medium) at 37° C in a humid atmosphere enriched with 5% CO2.
The treatment was performed at D0, D1, D4, D6 and D8 by topical application of 5 µl of diluted antibody used at final concentrations of 30 to 100 µg/mL in PBS. Eflornithin was used at a concentration of 100 mg/mL and keratinase at 20 mg/mL. A negative control experiment was performed using PBS only.
At D0, T0 lot explants were removed and cut in half. Half was fixed in buffered formalin and the other half was frozen at -80 ° C. A D8, 2 explants from each batch were taken and treated in the same manner.
After 24 hours of fixation in buffered formalin, the samples were dried and impregnated with paraffin using an automatic dehydration Leica TP 1010 according to the procedure MO-H-149, according to our procedure using a station coating Leica EG 1160. Sections of 5 microns were performed, using a microtome kind Minot, Leica RM 2125 and mounted on silanized glass slides Superfrost ® plus. Microscopic observations were performed by microscopy optical transmission. The shots were taken with a Leica Orthoplan DMLB or with a digital camera Olympus DP72 driven software acquisition and archiving Olympus CellD. The morphology was examined on paraffin sections stained with Masson's trichrome Goldner variant.

The subject of data set [2] is isolated human hair follicles. The data set can be described thus: Hair growth of isolated human hair follicles maintained in vitro (morphometric study). It is filed as cell-based. Conditions: versus no application and Minoxidil 2% 10 µmol; application 2h00 at 37°C; length at D0, D4, D6, D8. The procedure: Hair growth is measured using standard morphometric studies on isolated human hair follicles maintained in vitro (Philpott, 1999). Hair follicles are micro-dissected in a human scalp and maintained in a culture medium. Hair follicles in anagen phase are selected for the study. Each tested group is composed of 10-12 hair follicles.

In the case of `NCCC[C@](N)(C(=O)O)C(F)F` [R1, α-difluoromethylornithine], in data set [1] (D8, topical application), the “Bulb: morphology” value is given as “comparable to that observed in the untreated group D8”; the “Lower part of the hair follicle: morphology” value is “very slight cell alterations”; the “Midsection, sebaceous glands: morphology of inner and outer root sheaths” value is reported as “clear cellular alterations”; the “Upper part, near the infundibulum: morphology of the epithelial sheaths” value is “sharp cellular alterations”. For the same molecule, in data set [1] (D8, topical application), the “morphology of the epidermis” value is reported as “slightly altered with a slight spongiosis”. In addition, the “Sebaceous gland (quotation of morphological alterations)” value in data set [1] (sebaceous gland region of the hair follicle, topical application D0, D1, D4, D6, D8, antibodies 30 to 100 µg/mL in PBS, Eflornithin 100 mg/mL, keratinase 20 mg/mL, D8) was “++++”. For the same molecule, the “Upper part (quotation of morphological alterations)” value in data set [1] (upper part of the hair follicle near the infundibulum, topical application D0, D1, D4, D6, D8, antibodies 30 to 100 µg/mL in PBS, Eflornithin 100 mg/mL, keratinase 20 mg/mL, D8) is listed as “++++”. Besides, the “Hair growth compared to Control Group 0 and to Control Group M” value in data set [2] is reported as “significant hair growth retardation”.
